Values quoted from earlier work as cited in patent US6399640B1, “Arylthiazolidinedione and aryloxazolidinedione derivatives” (Merck & Co., Inc., priority 1999, dated 2002).

Columns and labels:
diabetic mouse model = conditions: Sohda et al, Chem. Pharm. Bull. 1982
PPARγ = conditions: subsequent studies; Willson et al, J. Med. Chem. 1996
ob/ob mice = conditions: Cantello et al, J. Med. Chem. 1994

O=C1NC(=O)C(c2ccc(OCCc3ccccc3)cc2)S1 (stereo not drawn) [(2), 5-[4-(phenylethoxy)phenyl]-2,4-thiazolidinedione]
antihyperglycemic effect (diabetic mouse model): no antihyperglycemic effect

CN(CCOc1ccc(C2SC(=O)NC2=O)cc1)c1nc2ccccc2o1 (stereo not drawn) [(1)]
amounts required for PPARγ activation (PPARγ): relatively high amounts | antihyperglycemic activity (ob/ob mice): no antihyperglycemic activity
